The results in this text go back to patent US20230265151A1, “GIP/GLP1 CO-AGONIST COMPOUNDS” (priority 2020, published 2023).

Where two headings read alike, the source gives them in different places.

Common to all, as to type: cell-based
The target in one test is hGLP-1R (Homo sapiens, UniProt P43220). As to the kind of experiment: Functional cAMP formation (HTRF) in HEK-293 clonal cells expressing hGLP-1R, 0.1% bovine casein, without or with 1.0% human serum albumin. Set-up: expressed in transfected cells. The note with it: for Emax: percent of maximal response to GLP-1(7-36)NH2; for EC50: cAMP. In short, it runs like this:
(§1)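 Readings of the HTRF 665/620 nm ratio, which falls as cAMP rises, were converted to nM cAMP using a standard curve after 30 min peptide exposure at 37° C.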

The target in another test is T1, hGCGR (Homo sapiens, UniProt P47871).
T1 construct: expressed in transfected cells
T1 sequence (P47871 26-477): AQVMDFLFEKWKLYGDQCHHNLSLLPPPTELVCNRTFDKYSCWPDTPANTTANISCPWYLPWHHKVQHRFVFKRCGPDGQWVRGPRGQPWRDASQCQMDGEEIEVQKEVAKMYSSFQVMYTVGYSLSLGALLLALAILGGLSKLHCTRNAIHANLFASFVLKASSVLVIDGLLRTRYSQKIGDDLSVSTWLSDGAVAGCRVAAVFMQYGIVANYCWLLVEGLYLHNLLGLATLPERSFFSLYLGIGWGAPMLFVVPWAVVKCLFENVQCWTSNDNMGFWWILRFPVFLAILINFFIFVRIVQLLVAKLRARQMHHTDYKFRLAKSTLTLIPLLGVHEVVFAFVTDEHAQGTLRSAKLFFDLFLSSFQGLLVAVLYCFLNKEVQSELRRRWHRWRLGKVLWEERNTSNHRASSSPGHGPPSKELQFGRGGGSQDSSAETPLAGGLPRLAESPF
The test can be described thus: Functional cAMP formation (HTRF) in HEK-293 clonal cells expressing hGCGR, 0.1% bovine casein, without or with 1.0% human serum albumin. As to conditions: 37° C. In short, it runs like this:
as §1

Another test has as its target T2, hGIPR (Homo sapiens, UniProt P48546).
T2 construct: expressed in transfected cells
T2 sequence (P48546 22-466): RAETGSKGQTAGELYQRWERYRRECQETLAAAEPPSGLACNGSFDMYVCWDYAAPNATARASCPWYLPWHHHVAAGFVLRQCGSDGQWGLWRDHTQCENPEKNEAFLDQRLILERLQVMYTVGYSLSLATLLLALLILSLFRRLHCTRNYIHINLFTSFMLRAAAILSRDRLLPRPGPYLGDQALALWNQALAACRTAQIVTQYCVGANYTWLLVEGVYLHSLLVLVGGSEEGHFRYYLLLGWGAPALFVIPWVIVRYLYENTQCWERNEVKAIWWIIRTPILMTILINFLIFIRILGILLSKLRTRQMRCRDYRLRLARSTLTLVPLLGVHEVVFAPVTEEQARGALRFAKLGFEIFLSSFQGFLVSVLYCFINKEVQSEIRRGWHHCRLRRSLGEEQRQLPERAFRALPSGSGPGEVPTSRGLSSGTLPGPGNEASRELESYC
As to the kind of experiment: Functional cAMP formation (HTRF) in HEK-293 clonal cells expressing hGIPR, 0.1% bovine casein, without or with 1.0% human serum albumin. The note with it: for Emax: percent of maximal response to GIP(1-42)NH2; for EC50: cAMP. Summed up: as §1

Setting [1] is: hGLP-1R EC50, nM (SEM, n), 37° C., 0.1% bovine casein (no human serum albumin), geometric mean.
Setting [2] is: hGCGR EC50, nM (SEM, n), cAMP, 0.1% bovine casein (no human serum albumin), geometric mean.
Setting [3] is: hGIPR EC50, nM (SEM, n), 37° C., 0.1% bovine casein (no human serum albumin), geometric mean.
The mark [4] stands for this setting: 37° C., 0.1% bovine casein (no human serum albumin), geometric mean, read-out: hGLP-1R EC50, nM (SEM, n).
Where [5] appears, read: cAMP, 0.1% bovine casein (no human serum albumin), geometric mean, read-out: hGCGR EC50, nM (SEM, n).
[6] abbreviates: cAMP, 0.1% bovine casein and 1.0% human serum albumin, geometric mean (SEM, n), read-out: hGCGR EC50, nM (SEM, n).
Where [7] appears, read: HEK293, cAMP, 37° C., 0.1% bovine casein and 1.0% human serum albumin, read-out: hGIPR Emax, % ± SEM.

Chain of hGLP-1R (P43220 24-463): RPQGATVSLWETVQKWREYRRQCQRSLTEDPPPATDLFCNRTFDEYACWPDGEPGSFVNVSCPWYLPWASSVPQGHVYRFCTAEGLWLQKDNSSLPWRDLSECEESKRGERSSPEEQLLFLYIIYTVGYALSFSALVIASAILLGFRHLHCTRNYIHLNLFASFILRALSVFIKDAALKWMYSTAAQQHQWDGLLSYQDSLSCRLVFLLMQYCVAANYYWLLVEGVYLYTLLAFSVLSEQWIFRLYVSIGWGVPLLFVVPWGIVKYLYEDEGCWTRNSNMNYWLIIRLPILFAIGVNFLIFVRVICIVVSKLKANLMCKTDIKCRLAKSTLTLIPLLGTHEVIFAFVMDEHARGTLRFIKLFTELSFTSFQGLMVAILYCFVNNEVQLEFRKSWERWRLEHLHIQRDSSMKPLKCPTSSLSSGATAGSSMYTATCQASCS

`CC[C@H](C)[C@H](NC(=O)[C@H](CCCN)NC(=O)[C@H](CC(=O)O)NC(=O)[C@H](CC(C)C)NC(=O)[C@](C)(CC(C)C)NC(=O)[C@@H](NC(=O)C(C)(C)NC(=O)[C@H](Cc1ccc(O)cc1)NC(=O)[C@H](CC(=O)O)NC(=O)[C@H](CO)NC(=O)[C@@H](NC(=O)[C@](C)(Cc1ccccc1F)NC(=O)[C@@H](NC(=O)CNC(=O)[C@H](CCC(=O)O)NC(=O)C(C)(C)NC(=O)[C@@H](N)Cc1ccc(O)cc1)[C@@H](C)O)[C@@H](C)O)[C@@H](C)CC)C(=O)N[C@@H](C)C(=O)N[C@@H](CCC(N)=O)C(=O)NC(C)(C)C(=O)N[C@@H](CCC(=O)O)C(=O)N[C@@H](Cc1ccccc1)C(=O)N[C@H](C(=O)N[C@@H](CCCCNC(=O)COCCOCCNC(=O)COCCOCCNC(=O)CC[C@H](NC(=O)CCCCCCCCCCOc1ccc(C(=O)O)cc1)C(=O)O)C(=O)N[C@@](C)(Cc1ccc(O)cc1)C(=O)N[C@@H](CC(C)C)C(=O)N[C@H](C(=O)N[C@@H](CCCCNC(=O)COCCOCCNC(=O)COCCOCCNC(=O)CC[C@H](NC(=O)CCCCCCCCCCOc1ccc(C(=O)O)cc1)C(=O)O)C(=O)NCC(=O)NCC(=O)N1CCC[C@H]1C(=O)N[C@@H](CO)C(=O)N[C@@H](CO)C(=O)NCC(=O)N[C@@H](C)C(=O)N1CCC[C@H]1C(=O)N1CCC[C@H]1C(=O)N1CCC[C@H]1C(=O)N[C@@H](CO)C(N)=O)[C@@H](C)CC)[C@@H](C)CC` [Example 312]: the maximal response (Emax) at hGLP-1R (HEK293, read-out: hGLP-1R Emax, % ± SEM, 0.1% bovine casein and 1.0% human serum albumin, 37° C.) turned out to be 112%; at hGIPR (HEK293, read-out: hGIPR Emax, % ± SEM, 0.1% bovine casein and 1.0% human serum albumin, 37° C.), 89.5%; on hGIPR (HEK293, read-out: hGIPR Emax, % ± SEM, cAMP, 37° C., 0.1% bovine casein, arithmetic mean), 105%. Further, the EC50 at hGLP-1R (setting [1]) was 0.663 nM; at hGCGR (hGCGR EC50, nM (SEM, n), 0.1% bovine casein and 1.0% human serum albumin, geometric mean) it was over 9950 nM; at hGCGR (setting [2]), over 9950 nM; on hGIPR (setting [3]) it was 0.00757 nM.

As to `CCCCCCCCCCCC(=O)N[C@@H](CCC(=O)NCCOCCOCC(=O)NCCCC[C@H](NC(=O)[C@H](CCCN)NC(=O)[C@H](CC(=O)O)NC(=O)[C@H](CC(C)C)NC(=O)[C@](C)(CC(C)C)NC(=O)[C@@H](NC(=O)C(C)(C)NC(=O)[C@H](CCCCNC(=O)COCCOCCNC(=O)CC[C@H](NC(=O)CCCCCCCCCCC)C(=O)O)NC(=O)[C@H](CC(=O)O)NC(=O)[C@H](CO)NC(=O)[C@@H](NC(=O)[C@](C)(Cc1ccccc1F)NC(=O)[C@@H](NC(=O)CNC(=O)[C@H](CCC(=O)O)NC(=O)C(C)(C)NC(=O)[C@@H](N)Cc1ccc(O)cc1)[C@@H](C)O)[C@@H](C)O)[C@@H](C)CC)C(=O)N[C@@H](C)C(=O)N[C@@H](CCC(N)=O)C(=O)NC(C)(C)C(=O)N[C@@H](CCC(=O)O)C(=O)N[C@@H](Cc1ccccc1)C(=O)N[C@H](C(=O)N[C@H](CCC(=O)O)C(=O)N[C@@](C)(Cc1ccc(O)cc1)C(=O)N[C@@H](CC(C)C)C(=O)N[C@H](C(=O)N[C@@H](CCC(=O)O)C(=O)NCC(=O)NCC(=O)N1CCC[C@H]1C(=O)N[C@@H](CO)C(=O)N[C@@H](CO)C(=O)NCC(=O)N[C@@H](C)C(=O)N1CCC[C@H]1C(=O)N1CCC[C@H]1C(=O)N1CCC[C@H]1C(=O)N[C@@H](CO)C(N)=O)[C@@H](C)CC)[C@@H](C)CC)C(=O)O` [Example 425], the EC50 at hGLP-1R (setting [4]) was 0.0965 nM; on hGCGR (setting [5]), over 9950 nM; at hGCGR (setting [6]), over 9950 nM; at hGIPR (37° C., 0.1% bovine casein (no human serum albumin), geometric mean, read-out: hGIPR EC50, nM (SEM, n)), 0.00943 nM. Moreover, the Emax came to 89.9% on hGIPR (setting [7]) and 97.6% on hGIPR (HEK293, cAMP, 37° C., 0.1% bovine casein, arithmetic mean, read-out: hGIPR Emax, % ± SEM).

Consider `CCCCCCCCCCCC(=O)N[C@@H](CCC(=O)NCCOCCOCC(=O)NCCOCCOCC(=O)NCCCC[C@H](NC(=O)[C@H](CCCN)NC(=O)[C@H](CC(=O)O)NC(=O)[C@H](CC(C)C)NC(=O)[C@](C)(CC(C)C)NC(=O)[C@@H](NC(=O)[C@H](CO)NC(=O)[C@H](CCc1ccc(O)cc1)NC(=O)[C@H](CC(=O)O)NC(=O)[C@H](CO)NC(=O)[C@@H](NC(=O)[C@](C)(Cc1ccccc1F)NC(=O)[C@@H](NC(=O)CNC(=O)[C@H](CCC(=O)O)NC(=O)C(C)(C)NC(=O)[C@@H](N)Cc1ccc(O)cc1)[C@@H](C)O)[C@@H](C)O)[C@@H](C)CC)C(=O)N[C@@H](C)C(=O)N[C@@H](CCC(N)=O)C(=O)NC(C)(C)C(=O)N[C@@H](CCC(=O)O)C(=O)N[C@@H](Cc1ccccc1)C(=O)N[C@H](C(=O)N[C@H](CCC(=O)O)C(=O)N[C@@](C)(Cc1ccc(O)cc1)C(=O)N[C@@H](CC(C)C)C(=O)N[C@H](C(=O)N[C@@H](CCCCNC(=O)COCCOCCNC(=O)COCCOCCNC(=O)CC[C@H](NC(=O)CCCCCCCCCCC)C(=O)O)C(=O)NCC(=O)NCC(=O)N1CCC[C@H]1C(=O)N[C@@H](CO)C(=O)N[C@@H](CO)C(=O)NCC(=O)N[C@@H](C)C(=O)N1CCC[C@H]1C(=O)N1CCC[C@H]1C(=O)N1CCC[C@H]1C(=O)N[C@@H](CO)C(N)=O)[C@@H](C)CC)[C@@H](C)CC)C(=O)O` [Example 335], for which the maximum response (Emax) at hGLP-1R (HEK293, cAMP, 37° C., 0.1% bovine casein, arithmetic mean, read-out: hGLP-1R Emax, % ± SEM) is 113%; at hGIPR (setting [7]), 85.2%. In addition, the EC50 on hGLP-1R (setting [4]) is 0.175 nM; at hGLP-1R (37° C., 0.1% bovine casein and 1.0% human serum albumin, geometric mean (SEM, n), read-out: hGLP-1R EC50, nM (SEM, n)), 12.3 nM; at hGCGR (setting [5]), over 9950 nM; on hGCGR (setting [6]), over 9950 nM; at hGIPR (37° C., 0.1% bovine casein and 1.0% human serum albumin, geometric mean (SEM, n), read-out: hGIPR EC50, nM (SEM, n)), 1.04 nM.

Consider `CC[C@H](C)[C@H](NC(=O)[C@H](CC(C)C)NC(=O)[C@](C)(Cc1ccc(O)cc1)NC(=O)[C@@H](CCC(=O)O)NC(=O)[C@@H](NC(=O)[C@H](Cc1ccccc1)NC(=O)[C@H](CCC(=O)O)NC(=O)C(C)(C)NC(=O)[C@H](CCC(N)=O)NC(=O)[C@H](C)NC(=O)[C@H](CCCCNC(=O)COCCOCCNC(=O)COCCOCCNC(=O)CC[C@H](NC(=O)CCCCCCCCCOc1ccc(C(=O)O)cc1)C(=O)O)NC(=O)[C@H](CCCN)NC(=O)[C@H](CC(=O)O)NC(=O)[C@H](CC(C)C)NC(=O)[C@](C)(CC(C)C)NC(=O)[C@@H](NC(=O)[C@H](CO)NC(=O)[C@H](CCc1ccc(O)cc1)NC(=O)[C@H](CC(=O)O)NC(=O)[C@H](CO)NC(=O)[C@@H](NC(=O)[C@](C)(Cc1ccccc1F)NC(=O)[C@@H](NC(=O)CNC(=O)[C@H](CCC(=O)O)NC(=O)C(C)(C)NC(=O)[C@@H](N)Cc1ccc(O)cc1)[C@@H](C)O)[C@@H](C)O)[C@@H](C)CC)[C@@H](C)CC)C(=O)N[C@@H](CCCCNC(=O)COCCOCCNC(=O)COCCOCCNC(=O)CC[C@H](NC(=O)CCCCCCCCCOc1ccc(C(=O)O)cc1)C(=O)O)C(=O)NCC(=O)NCC(=O)N1CCC[C@H]1C(=O)N[C@@H](CO)C(=O)N[C@@H](CO)C(=O)NCC(=O)N[C@@H](C)C(=O)N1CCC[C@H]1C(=O)N1CCC[C@H]1C(=O)N1CCC[C@H]1C(=O)N[C@@H](CO)C(N)=O` [Example 327], for which the concentration giving a half-maximal response (EC50) at hGLP-1R (setting [1]) was 0.211 nM; on hGLP-1R (hGLP-1R EC50, nM (SEM, n), 37° C., 0.1% bovine casein and 1.0% human serum albumin, geometric mean (SEM, n)) it was 13.6 nM; at hGCGR (setting [2]) it was over 9950 nM; on hGCGR (hGCGR EC50, nM (SEM, n), cAMP, 0.1% bovine casein and 1.0% human serum albumin, geometric mean (SEM, n)), over 9950 nM; on hGIPR (setting [3]), 0.018 nM. Also, at hGIPR (HEK293, read-out: hGIPR Emax, % ± SEM, cAMP, 37° C., 0.1% bovine casein and 1.0% human serum albumin), the Emax was determined as 90.2%.
